Assay results published in the supplement of paper PMC10307832.

What was measured:
Assay in all cases: relative viability (nuclei count vs DMSO), 5 days (fraction); higher = more cells survive
NCI-H2228 = system: NCI-H2228
How it was run: (§1)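 Each reported value is a median over duplicate plates. It expresses relative viability: treated-well nuclei count divided by vehicle-well nuclei count. Lung cancer cell lines in 1536-well plates were dosed by pin tool a day after seeding, alone with one drug or with a fixed anchor-drug dose plus five library-drug doses (not always all listed) in √10 steps, and nuclei were counted after 5 days.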

H3255 = system: H3255
How it was run: as §1

NCI-H1355 = system: NCI-H1355
How it was run: as §1

HCC-15 = system: HCC-15
How it was run: as §1

HCC-827 = system: HCC-827
How it was run: as §1

NCI-H1563 = system: NCI-H1563
How it was run: as §1

NCI-H2405 = system: NCI-H2405
How it was run: as §1

COR-L23 = system: COR-L23
How it was run: as §1

NCI-H322M = system: NCI-H322M
How it was run: as §1

EKVX = system: EKVX
How it was run: as §1

PC-14 = system: PC-14
How it was run: as §1

ABC-1 = system: ABC-1
How it was run: as §1

NCI-H1734 = system: NCI-H1734
How it was run: as §1

NCI-H1650 = system: NCI-H1650
How it was run: as §1

NCI-H520 = system: NCI-H520
How it was run: as §1

CAL-12T = system: CAL-12T
How it was run: as §1

RERF-LC-KJ = system: RERF-LC-KJ
How it was run: as §1

NCI-H1437 = system: NCI-H1437
How it was run: as §1

PC-3 [JPC-3] = system: PC-3 [JPC-3]
How it was run: as §1

SW 1573 = system: SW 1573
How it was run: as §1

NCI-H661 = system: NCI-H661
How it was run: as §1

`NC(=O)Nc1cc(-c2cccc(F)c2)sc1C(=O)N[C@H]1CCCNC1` [AZD7762] + CC(C)C[C@H](NC(=O)[C@H](Cc1ccccc1)NC(=O)c1cnccn1)B(O)O [Bortezomib] (partner 0.002 µM) showed a relative viability (NCI-H2228; first compound 0.01 µM) of 1.04, a relative viability (NCI-H2228; first compound 0.03162 µM) of 1.33 and a relative viability (NCI-H2228; first compound 0.1 µM) of 1.03. For the same molecule, the relative viability (NCI-H2228; first compound 0.3162 µM) was 0.723, the relative viability (NCI-H2228; first compound 1 µM) was 0.389 and the relative viability (H3255; first compound 0.01 µM) was 0.818. The relative viability (H3255; first compound 0.03162 µM) was 0.852, the relative viability (H3255; first compound 0.1 µM) was 0.734 and the relative viability (H3255; first compound 0.3162 µM) was 0.609. The relative viability (H3255; first compound 1 µM) was 0.59, the relative viability (NCI-H1355; first compound 0.01 µM) was 1.17 and the relative viability (NCI-H1355; first compound 0.03162 µM) was 1.23. The relative viability (NCI-H1355; first compound 0.1 µM) was 1.21, the relative viability (NCI-H1355; first compound 0.3162 µM) was 1.27 and the relative viability (NCI-H1355; first compound 1 µM) was 1.19. The relative viability (HCC-15; first compound 0.01 µM) was 1.01, the relative viability (HCC-15; first compound 0.03162 µM) was 0.95 and the relative viability (HCC-15; first compound 0.1 µM) was 0.898. It also gave a relative viability (HCC-15; first compound 0.3162 µM) of 0.937, a relative viability (HCC-15; first compound 1 µM) of 0.986 and a relative viability (HCC-827; first compound 0.01 µM) of 1.02. The relative viability (HCC-827; first compound 0.03162 µM) was 1.05, the relative viability (HCC-827; first compound 0.1 µM) was 1.16 and the relative viability (HCC-827; first compound 0.3162 µM) was 1.08. It also gave a relative viability (HCC-827; first compound 1 µM) of 0.929, a relative viability (NCI-H1563; first compound 0.01 µM) of 0.843 and a relative viability (NCI-H1563; first compound 0.03162 µM) of 0.963. The relative viability (NCI-H1563; first compound 0.1 µM) was 1.05, the relative viability (NCI-H1563; first compound 0.3162 µM) was 0.976 and the relative viability (NCI-H1563; first compound 1 µM) was 0.746. It also gave a relative viability (NCI-H2405; first compound 0.01 µM) of 0.933, a relative viability (NCI-H2405; first compound 0.03162 µM) of 0.982 and a relative viability (NCI-H2405; first compound 0.1 µM) of 0.963. The relative viability (NCI-H2405; first compound 0.3162 µM) was 0.943, the relative viability (NCI-H2405; first compound 1 µM) was 0.796 and the relative viability (COR-L23; first compound 0.01 µM) was 1.12. For the same molecule, the relative viability (COR-L23; first compound 0.03162 µM) was 0.981, the relative viability (COR-L23; first compound 0.1 µM) was 0.985 and the relative viability (COR-L23; first compound 0.3162 µM) was 0.905. It also gave a relative viability (COR-L23; first compound 1 µM) of 0.229, a relative viability (NCI-H322M; first compound 0.01 µM) of 1.09 and a relative viability (NCI-H322M; first compound 0.03162 µM) of 1.26. It also gave a relative viability (NCI-H322M; first compound 0.1 µM) of 1.36, a relative viability (NCI-H322M; first compound 0.3162 µM) of 1.39 and a relative viability (NCI-H322M; first compound 1 µM) of 1.33. The relative viability (EKVX; first compound 0.01 µM) was 0.996, the relative viability (EKVX; first compound 0.03162 µM) was 1.04 and the relative viability (EKVX; first compound 0.1 µM) was 0.974. For the same molecule, the relative viability (EKVX; first compound 0.3162 µM) was 0.912, the relative viability (EKVX; first compound 1 µM) was 0.688 and the relative viability (PC-14; first compound 0.01 µM) was 0.848. The relative viability (PC-14; first compound 0.03162 µM) was 0.925, the relative viability (PC-14; first compound 0.1 µM) was 0.932 and the relative viability (PC-14; first compound 0.3162 µM) was 0.662. The relative viability (PC-14; first compound 1 µM) was 0.357, the relative viability (ABC-1; first compound 0.01 µM) was 0.276 and the relative viability (ABC-1; first compound 0.03162 µM) was 0.389. It also gave a relative viability (ABC-1; first compound 0.1 µM) of 0.3, a relative viability (ABC-1; first compound 0.3162 µM) of 0.26 and a relative viability (ABC-1; first compound 1 µM) of 0.202. The relative viability (NCI-H1734; first compound 0.01 µM) was 0.912, the relative viability (NCI-H1734; first compound 0.03162 µM) was 1.04 and the relative viability (NCI-H1734; first compound 0.1 µM) was 0.963. It also gave a relative viability (NCI-H1734; first compound 0.3162 µM) of 0.821, a relative viability (NCI-H1734; first compound 1 µM) of 0.527 and a relative viability (NCI-H1650; first compound 0.01 µM) of 0.217. The relative viability (NCI-H1650; first compound 0.03162 µM) was 0.205, the relative viability (NCI-H1650; first compound 0.1 µM) was 0.211 and the relative viability (NCI-H1650; first compound 0.3162 µM) was 0.203. The relative viability (NCI-H1650; first compound 1 µM) was 0.204, the relative viability (NCI-H520; first compound 0.01 µM) was 0.471 and the relative viability (NCI-H520; first compound 0.03162 µM) was 0.659. For the same molecule, the relative viability (NCI-H520; first compound 0.1 µM) was 0.525, the relative viability (NCI-H520; first compound 0.3162 µM) was 0.27 and the relative viability (NCI-H520; first compound 1 µM) was 0.289. For the same molecule, the relative viability (CAL-12T; first compound 0.01 µM) was 0.96, the relative viability (CAL-12T; first compound 0.03162 µM) was 1.06 and the relative viability (CAL-12T; first compound 0.1 µM) was 0.931. The relative viability (CAL-12T; first compound 0.3162 µM) was 0.641, the relative viability (CAL-12T; first compound 1 µM) was 0.23 and the relative viability (RERF-LC-KJ; first compound 0.01 µM) was 1.16. The relative viability (RERF-LC-KJ; first compound 0.03162 µM) was 1.11, the relative viability (RERF-LC-KJ; first compound 0.1 µM) was 1.11 and the relative viability (RERF-LC-KJ; first compound 0.3162 µM) was 1.11. The relative viability (RERF-LC-KJ; first compound 1 µM) was 1.14, the relative viability (NCI-H1437; first compound 0.01 µM) was 0.407 and the relative viability (NCI-H1437; first compound 0.03162 µM) was 0.4. It also gave a relative viability (NCI-H1437; first compound 0.1 µM) of 0.56, a relative viability (NCI-H1437; first compound 0.3162 µM) of 0.58 and a relative viability (NCI-H1437; first compound 1 µM) of 0.433. It also gave a relative viability (PC-3 [JPC-3]; first compound 0.01 µM) of 0.886, a relative viability (PC-3 [JPC-3]; first compound 0.03162 µM) of 0.88 and a relative viability (PC-3 [JPC-3]; first compound 0.1 µM) of 0.829. The relative viability (PC-3 [JPC-3]; first compound 0.3162 µM) was 0.883, the relative viability (PC-3 [JPC-3]; first compound 1 µM) was 0.785 and the relative viability (SW 1573; first compound 0.01 µM) was 1.12. The relative viability (SW 1573; first compound 0.03162 µM) was 1.4, the relative viability (SW 1573; first compound 0.1 µM) was 1.21 and the relative viability (SW 1573; first compound 0.3162 µM) was 1.22. For the same molecule, the relative viability (SW 1573; first compound 1 µM) was 0.771, the relative viability (NCI-H661; first compound 0.01 µM) was 0.828 and the relative viability (NCI-H661; first compound 0.03162 µM) was 0.938. The relative viability (NCI-H661; first compound 0.1 µM) was 0.766, the relative viability (NCI-H661; first compound 0.3162 µM) was 0.681 and the relative viability (NCI-H661; first compound 1 µM) was 0.382.
